Like-named read-outs stand apart in the source and are kept apart here.
Legend:
MDSC cultures [1] = assay: bNGF-induced neuronal cell differentiation of MDSC cultures; format: cell-based, human; settings: 200 ng/ml bNGF
Protocol: To examine the ability of MDSCs to mature along yet another cell lineage, the effect of nerve growth factor (bNGF), an inducer of neuronal differentiation (McAllister et al., Cell. Mol. Life Sci., 58:1054-1060 (2001)), was tested. […] After 5-8 days these processes, some of which were exceedingly long, formed cell-cell contacts and created the appearance of a neural network. These mature cells were further characterized by immunostaining for neuron-specific enolase (NSE), neurofilament (NF) and microtubule-associated protein-1B (MAP-1B), which are well-known markers of neuronal cells (Encinas et al., J. Neurochem., 75:991-1003 (2000)).

[2] = tested on: freshly cultured peripheral blood monocytes; assay: bNGF treatment of freshly cultured peripheral blood monocytes; format: cell-based, human; settings: bNGF for 7 or 20 days
[3] = tested on: MDSC colonies Clone 1 and Clone 2; settings: seven days; for Immunostained cells (%), MAP1-B (Neuronal): 200 ng/ml NGF; for Immunostained cells (%), vWF (Endothelial): 50 ng/ml VEGF; for Immunostained cells (%), AFP (Hepatocyte): 50 ng/ml HGF; for Immunostained cells (%), Keratins (Epithelial): 100 ng/ml EGF
Protocol: To determine whether progeny of colonies derived from single MDSCs can be induced to differentiate into distinct cell lineages, cells from a five-day, 50 ng/ml, M-CSF-treated culture enriched to contain 99.97% peripheral blood monocytes were inoculated into 12 U-bottom tissue culture plates, 96 wells each, at 0.8 cells/well in 0.1-0.2 ml growth medium. The cells were then incubated in the presence of 50 ng/ml M-CSF and 1,000 units/ml LIF for 15-20 days. Additionally, one plate was incubated with 25% conditioned medium from a five-day, 50 ng/ml, M-CSF treated culture. […] The few wells that contained more than one cell were excluded from further experimentation. Medium was replaced every 5-7 days.
At 45-52 days, these cells were dispersed by forceful pipetting, without lidocaine, into flat-bottom, 96-well, tissue culture plates. […] Two colonies of MDSCs, each of which had arisen from a single cell, were chosen for further differentiation experiments and were termed Clone 1 and Clone 2. […] These antibodies separately recognized cell-surface markers that included the T lymphocyte marker CD3, the epithelial marker keratin, the endothelial marker vWF, the neuronal marker MAP1-B, and the hepatocyte marker AFP.

MDSC cultures [4] = assay: VEGF-induced endothelial cell differentiation of MDSC cultures; settings: 50 ng/ml VEGF, 5-7 days
Protocol: MDSC cultures prepared as described above were treated with 50 ng/ml of recombinant human vascular endothelial growth factor165 isoform (VEGF) for 5-7 days.

MDSC cultures [5] = assay: Insulin release from MDSC cultures (insulin ELISA); format: cell-based, human; set-up: insulin release with osmolarity control: dose or concentration left out as unconfirmed
Protocol: Insulin release. MDSC cultures incubated in 24-well tissue culture plates (Costar, Cambridge, Mass.) at 70-80% confluence were treated for 4-5 days with LPS or CD40Ab. Insulin secretion was assessed as previously described in Schuit, F., et al., J. Biol. Chem. 272:18572-18579 (1997), using an insulin ELISA kit (Linco Research, MO). When required, the untreated or treated cultures were also pre-incubated for 30 min with […] diazoxide, 10 mM tolbudamide, or […] IBMX.

MDSCs = assay: Dispersion of MDSCs from the culture dish by standard digestion; format: cell-based, human; settings: standard digestion for up to 60 minutes
Protocol: In this example, a feature of the MDSCs is resistance to dispersion by trypsin and/or EDTA, or dispase. […] Therefore, to obtain cell suspensions for subculture, the MDSCs were dispersed by forceful pipetting after incubation with 2% lidocaine in a PBS solution for 5-8 minutes, with the exception of the work described in Example 8.

MDSC cultures [6] = assay: HGF-induced hepatocyte differentiation of MDSC cultures; format: cell-based, human
Excerpt: A smaller fraction of 33±4% also immunostained for cytokeratin 7, which is a marker of bile duct epithelium (Ruck et al., Histopathology 31: 324-329 (1997)). Only 8±5% of control cells immunostained for albumin, 6±5% for AFP, and 7±3% for cytokeratin 7.

MDSC cultures [7] = assay: EGF-induced epithelial cell differentiation of MDSC cultures; format: cell-based, human; settings: 100 ng/ml EGF, 4 days
Excerpt: To determine whether MDSCs differentiate into lineages other than those of blood cells, the ability to differentiate into epithelial cells was initially tested. […] Only 4±1% of control cells stained for keratins and 3±2% for E-cadherin. Cells that stained positive for E-cadherin consistently stained for keratins.

[8] = tested on: human peripheral blood monocytes; assay: Generation and growth of MDSCs in cultured peripheral blood monocytes (morphological examination); format: cell-based
Protocol: Peripheral blood monocyte (PBM) preparations from about 50 ml buffy coats samples (each from 500 ml peripheral blood) of healthy individuals (LifeSource Blood Services, Glenview, Ill.) were obtained by a selective attachment method as previously described (Hoklland, M. et al., Cell Biology, a laboratory handbook, Celis J. E. ed., Academic Press, 1: 179-181 (1994)). Buffy coat cell samples of 20-25 ml, which were diluted earlier with an equal volume of RPMI 1640 medium (Life Technologies, Inc.), were carefully layered over 20 ml Ficoll-Hypaque (γ=1.077) in 50 ml centrifuge tubes and then centrifuged using a Beckman CPKR centrifuge and a GH-3.7 horizontal rotor at 3,500 rpm (2700 g) for 25 minutes at 4° C. After carefully harvesting the mononuclear cells at the interface, cells were washed 2-3 times with RPMI 1640 medium by centrifugation using a Beckman CPKR centrifuge and a GH-3.7 horizontal rotor at 1,000 rpm (250 g) for 10 minutes. The cells were then used for culture and/or stored in liquid nitrogen in a 90% bovine calf serum and 10% dimethyl sulfoxide solution. The cells, including those obtained from storage in liquid nitrogen, were incubated at 2-3×10^7 cells/15 cm dish. After 8-12 hours incubation at 37° C. (8% CO2), the floating cells were removed and the dishes were rinsed 5 times with RPMI 1640 medium. The attached cells were then detached from the surface of the dishes by forceful pipetting with 5-10 ml of RPMI 1640 medium supplemented with 10% bovine calf serum.
The percentage of PBM was verified by immunostaining with an R-phycoerythin-conjugated mouse anti-human CD14 monoclonal antibody using a Becton Dickinson FACScan. The fraction of CD14 cells in these cell preparations, which were usually used in the experiments, was 90-95%. In a number of experiments, the CD14-immunostained cells were further isolated to a purity of 99.97% by using a droplet cell-sorting method by means of a 5 detector Becton Dickinson FACStarPlus Cell Sorter. The isolated PBMs were inoculated at 1×10^5 cells/ml in 8-well LabTek chamber slides (Nunc, Inc., Naperville, Ill.) at 0.4 ml/well in a 37° C. humidified atmosphere containing 8% CO2. Every five to seven days, one-half of the culture medium was replaced with fresh growth medium. This medium consisted of RPMI-1640 supplemented with 10% heat-inactivated bovine calf serum (Harlan, Indianapolis, Ind.), 100 units/ml penicillin, 100 μg/ml streptomycin, and 2 mM L-glutamine (Life Technologies).
Five preparations of cultured human peripheral blood monocytes, each from a different individual, were treated with 50 ng/ml M-CSF (Zhoa et al., Proc. Natl. Acad. Sci., 100:2426-2431 (2003); incorporated herein by reference in its entirety). After five days of incubation, the cultures contained two major morphologically distinct subsets of cells. The less abundant of the two subsets, containing about 25-35% of the total cells, was composed of elongated cells that morphologically resembled fibroblasts and were termed monocyte-derived stem cells (MDSCs). The other subset, containing about 65-75% of the total, was composed of standard macrophages, which were termed s-macrophages or standard macrophages (s-MΦ) (FIG. 1). […]
In order to determine whether the MDSCs were simply replicating progenitors of s-MΦ, five preparations of cultured peripheral blood monocytes, each from a different human, were treated with 50 ng/ml M-CSF and the number of MDSCs and s-MΦ were determined over a period of 14 days by morphological examination. […]

[9] = 50 ng/ml M-CSF, five days, five monocyte preparations

bNGF: nerve growth factor, an inducer of neuronal differentiation
MDSCs displaying neuronal morphology (MDSC cultures [1]): about 90% | cells with immunostaining for NSE, NF and MAP-1B (MDSC cultures [1]; 5-8 days): about 90% | cells with robust immunostaining for NSE, NF and MAP-1B (MDSC cultures [1]; three days): 25% | neuronal differentiation [2]: Little to no neuronal differentiation | Immunostained cells (%), MAP1-B (Neuronal) ([3]; Clone 1): 83% | Immunostained cells (%), MAP1-B (Neuronal) ([3]; Clone 2): 80%

VEGF
Immunostained cells (%), vWF (Endothelial) ([3]; Clone 1): 80% | Immunostained cells (%), vWF (Endothelial) ([3]; Clone 2): 87% | cells displaying endothelial cell morphology (MDSC cultures [4]): about 70% | cells immunostaining for VEGF-R2, VEGF-R3 and vWF (MDSC cultures [4]): 74±3% | cells immunostaining for neuronal markers NSE, NF and MAP-1B (MDSC cultures [4]): 31±4%

OC[C@@H](O)[C@@H](O)[C@H](O)[C@H](O)CO [Mannite]
insulin release with osmolarity control (MDSC cultures [5]): little to no insulin release

trypsin
removal of MDSCs from the surface of the culture dish (MDSCs): failed to remove the MDSCs

HGF: recombinant human hepatocyte growth factor
cells displaying round or oval-like flattened morphology (MDSC cultures [6]; 100 ng/ml HGF, 5-7 days): 75-80% | cells immunostaining for cytokeratin 7 (MDSC cultures [6]; 100 ng/ml HGF, 5-7 days): 33±4% | treated cells immunostaining for AFP (MDSC cultures [6]; 100 ng/ml HGF, 5-7 days): 81±7% | treated cells immunostaining for albumin (MDSC cultures [6]; 100 ng/ml HGF, 5-7 days): 75±7% | Percentage of cells displaying immunostaining for AFP (MDSC cultures [6]; HGF 50 ng/ml (Table 3)): 81 ± 7% | Percentage of cells displaying immunostaining for Albumin (MDSC cultures [6]; HGF 50 ng/ml (Table 3)): 75 ± 7% | Percentage of cells displaying immunostaining for Cytokeratin 7 (MDSC cultures [6]; HGF 50 ng/ml (Table 3)): 33 ± 4% | Immunostained cells (%), AFP (Hepatocyte) ([3]; Clone 1): 88% | Immunostained cells (%), AFP (Hepatocyte) ([3]; Clone 2): 75%

CCCCNC(=O)NS(=O)(=O)c1ccc(C)cc1 [tolbutamide]
effect on LPS- or CD40Ab-induced insulin release (MDSC cultures [5]; low glucose (5 mM), 30 minutes, 10 μM tolbudamide, 100 μM IBMX): markedly stimulated

CC1=NS(=O)(=O)c2cc(Cl)ccc2N1 [diazoxide]
effect on LPS- or CD40Ab-induced insulin release (MDSC cultures [5]; high glucose, 30 min pre-incubation): effectively inhibited

EGF: promoter of epithelial cell growth and differentiation
MDSCs displaying epithelial cell morphology (MDSC cultures [7]): about 70% | cells immunostaining for E-cadherin (MDSC cultures [7]): 68±5% | cells immunostaining for pan-keratins (MDSC cultures [7]): 71±4% | Immunostained cells (%), Keratins (Epithelial) ([3]; Clone 1): 89% | Immunostained cells (%), Keratins (Epithelial) ([3]; Clone 2): 76%

B1: M-CSF: macrophage colony-stimulating factor, mitogenic compound used to propagate MDSCs (protein, UniProt P09603 33-554, looked up)
Macrophage colony-stimulating …: EEVSEYCSHMIGSGHLQSLQRLIDSQMETSCQITFEFVDQEQLKDPVCYLKKAFLLVQDIMEDTMRFRDNTPNAIAIVQLQELSLRLKSCFTKDYEEHDKACVRTFYETPLQLLEKVKNVFNETKNLLDKDWNIFSKNCNNSFAECSSQDVVTKPDCNCLYPKAIPSSDPASVSPHQPLAPSMAPVAGLTWEDSEGTEGSSLLPGEQPLHTVDPGSAKQRPPRSTCQSFEPPETPVVKDSTIGGSPQPRPSVGAFNPGMEDILDSAMGTNWVPEEASGEASEIPVPQGTELSPSRPGGGSMQTEPARPSNFLSASSPLPASAKGQQPADVTGTALPRVGPVRPTGQDWNHTPQKTDHPSALLRDPPEPGSPRISSLRPQGLSNPSTLSAQPQLSRSHSSGSVLPLGELEGRRSTRDRRSPAEPEGGPASEGAARPLPRFNSVPLTDTGHERQSEGSFSPQLQESVFHLLVPSVILVLLAVGGLLFYRWRRRSHQEPQRADSPLEQPEGSPLTQDDRQVELPV
MDSCs in confluent cultures ([8]; 50 ng/ml M-CSF, after day 10): 80-90% | MDSC population replication interval ([8]; 50 ng/ml M-CSF, estimated from growth curve after 6 days): three | MDSCs, share of the total cells [8, 9]: 25-35% | standard macrophages (s-MΦ), share of the total cells [8, 9]: 65-75% | cells with MDSC morphology ([8]; 50 ng/ml, 7-9 days): 70-80%

Source: patent publication US20050260158A1, “Human stem cell materials and methods” (priority 2003, published 2005)
